For this experiment, the target named is T1, human GnRH receptor (Homo sapiens, UniProt P30968).
T1 construct: expressed in transfected cells; membrane preparations
T1 sequence (P30968 1-328): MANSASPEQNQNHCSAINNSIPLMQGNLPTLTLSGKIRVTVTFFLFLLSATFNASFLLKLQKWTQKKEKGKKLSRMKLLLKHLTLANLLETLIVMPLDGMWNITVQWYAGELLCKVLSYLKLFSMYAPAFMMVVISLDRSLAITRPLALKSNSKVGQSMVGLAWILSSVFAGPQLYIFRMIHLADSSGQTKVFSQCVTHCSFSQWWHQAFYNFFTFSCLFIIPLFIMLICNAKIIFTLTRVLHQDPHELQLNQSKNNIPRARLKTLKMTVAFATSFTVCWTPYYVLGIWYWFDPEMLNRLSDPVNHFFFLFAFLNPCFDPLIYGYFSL
As to the kind of experiment: peptide competitive human receptor binding assays (radioligand displacement). The conditions noted are these: tested in one or more of the peptide competitive human receptor binding assays. The method, then: HEK293 cells stably transfected with the human GnRH receptor are grown for two days after achieving confluence then are harvested by striking tissue culture flasks against a firm surface. Cells are collected by centrifugation at 1000 g for […]. Cell pellets are resuspended in 5% sucrose and homogenized using a polytron homogenizer for two 15 second homogenization steps. Cell homogenates are then centrifuged for 5 minutes at 3000 g to remove nuclei and the supernatant subsequently centrifuged for 30 minutes at 44,000 g to collect the membrane fraction. The membrane pellet is resuspended in GnRH binding buffer (10 mM HEPES, pH 7.5, 150 mM NaCl and 0.1% BSA) and aliquots immediately snap-frozen in liquid nitrogen and stored at −80° C. Protein content of the membrane suspension is determined using the Bio-Rad protein assay kit (Bio-Rad).
RBL cells stably transfected with the human GnRH receptor are grown to 80% confluency prior to harvesting. The cells are incubated at 37° C. for 10 min in 0.5 mM EDTA/PBS (Ca^++, Mg^++ free), and are dislodged from the plate by gentle rapping of the flasks. Cells are collected and pelleted by centrifugation at 1000 g for 5 minutes. Cell pellets are resuspended in buffer (DPBS supplemented with 10 mM MgCl2, 2 mM EGTA, pH=7.4), and cell lysis is performed using a pressure cell and applying N2 at a pressure of 900 psi for 30 min at 4° C. Unbroken cells and larger debris were removed by centrifugation at 1200 g for 10 min at 4° C. The cell membrane supernatant is then centrifuged at 45,000 g and the resulting membrane pellet is resuspended in assay buffer and homogenized on ice using a tissue homogenizer. Protein concentrations are determined using the Coomassie Plus Protein Reagent kit. Membranes are aliquoted and stored at −80° C. until ready for use.
Radioligand binding displacement assays using the peptide radioligands are performed in buffer containing 10 mM HEPES, 150 mM NaCl and 0.1% BSA, pH=7.5. Radioligand binding assays employing the use of [^3H]-1-(2,6-difluorobenzyl)-3-[(2R)-amino-2-phenethyl]-5-(2-fluoro-3-methoxyphenyl)-6-methyluracil (here the 3-methoxy group is tritiated) are run in buffer containing 50 mM Tris, 150 mM NaCl, 5 mM MgCl2, 0.01% saponin and 0.5 mM EDTA, pH=7.5. Radioligand displacement assays are performed by incubating radioligand ([^125I-Tyr^5, DLeu^6, NMeLeu^7, Pro^9-NEt]GnRH (0.1 nM), [His^5, ^125I-DTyr^6]GnRH (0.2 nM) (31) or [^3H]-1-(2,6-difluorobenzyl)-3-[(2R)-amino-2-phenethyl]-5-(2-fluoro-3-methoxyphenyl)-6-methyluracil (1 nM)), unlabeled competitors at concentrations ranging from 0.3 pM to 10 μM, and membranes for 2 hrs at rt. 10 to 20 μg protein/well is used from membrane preparations for human, monkey and rabbit GnRH receptor. 5 μg/well and 60 μg/well of membranes are used for rat and dog GnRH receptors, respectively. Binding assays are performed in either Millipore 96-well GF/C filtration plates (for ([^125I-Tyr^5, DLeu^6, NMeLeu^7, Pro^9-NEt]GnRH assays), or in 96 well low binding plates, which are subsequently filtered onto GF/C Unifilters. Filters are pretreated with 0.5% PEI for 30 min prior to use. Reactions are terminated by rapid vacuum filtration, and the filters are washed twice with 250 μL ice cold PBS pH=7.4 (0.01% Tween-20 is included in wash media for [His^5, ^125I-DTyr^6]GnRH and [^3H]-1-(2,6-difluorobenzyl)-3-[(2R)-amino-2-phenethyl]-5-(2-fluoro-3-methoxyphenyl)-6-methyluracil radioligands). The filters are dried, and the Millipore filters are monitored for radioactivity using a Cobra II gamma counter (Perkin Elmer Life Sciences). For assays filtered onto the GF/C Unifilter plates, 50 μL scintillation fluid is added to each filter, and radioactivity is monitored using a TopCount NXT. For iodinated radioligands, total radioligand is monitored on a gamma counter, and for the tritiated radioligand, total radioligand is monitored using a Perkin Elmer 1600TR liquid scintillation counter. […]
A general note: Displacement assays read how much labelled ligand stays bound in the presence of the test substance.

This passage reports Ki results from patent US8507536B2, “Gonadotropin-releasing hormone receptor antagonists and methods relating thereto” (Neurocrine Biosciences, Inc., priority 2007, dated 2013).

For orientation: Ki means a measure of affinity in units of concentration, obtained from inhibition or displacement. Read a high Ki as weaker binding. Regarding `N#Cc1cc(C(F)(F)F)ncc1-c1cc(S(=O)(=O)N2CCCCc3ccccc32)c(OCCCC(=O)O)cc1Cl` [Example 7-1, 4-[5-chloro-4-(4-cyano-6-trifluoromethyl-pyridin-3-yl)-2-(2,3,4,5-tetrahydro-benzo[b]azepine-1-sulfonyl)-phenoxy]-butyric acid], the Ki is at most 100 nM.

The molecule `O=S(=O)(c1ccc(Cl)c(-c2cnc(Cl)cc2Cl)c1)N1CCOc2ccccc21` [Example 5-4] came in with a Ki of at most 100 nM.

`Cc1cc(C#N)ncc1-c1cc(S(=O)(=O)N2CCCCc3ccccc32)c(OCCC(=O)O)cc1Cl` [Example 10-1, 3-[5-chloro-4-(6-cyano-4-methyl-pyridin-3-yl)-2-(2,3,4,5-tetrahydro-benzo[b]azepine-1-sulfonyl)-phenoxy]-propionic acid] registered a Ki of at most 100 nM.

`COc1cccc(CN(C)S(=O)(=O)c2cc(-c3cnc(C(F)(F)F)cc3C#N)c(Cl)cc2OC)c1` [Example 15-32] had a Ki of at most 100 nM.

As to `CN(c1ccccc1)S(=O)(=O)c1cc(-c2cnc(C(F)(F)F)cc2C#N)c(Cl)cc1OCC(=O)O` [Example 19-1, [5-chloro-4-(4-cyano-6-trifluoromethyl-pyridin-3-yl)-2-(methyl-phenyl-sulfamoyl)-phenoxy]-acetic acid], the Ki is at most 100 nM.

`CC1CCc2ccccc2N1S(=O)(=O)c1ccc(Cl)c(-c2cnc(Cl)cc2Cl)c1` (stereo not drawn) [Example 5-6] showed a Ki of at most 100 nM.

As to `COc1cc(Cl)c(-c2cnc(C(F)(F)F)cc2C#N)cc1S(=O)(=O)N(C)c1cccc(C)c1` [Example 15-9], the Ki was at most 100 nM.

Molecule `Cc1cc(Cl)ncc1-c1cc(S(=O)(=O)N2CCCOc3ccccc32)ccc1Cl` [Example 4-23] showed a Ki of at most 100 nM.

For `COc1cc(Cl)c(-c2cnc(C(F)(F)F)cc2C#N)cc1S(=O)(=O)N(C)c1c(C)cccc1OC` [Example 15-15], the Ki was at most 100 nM.

`CC1(C)CCN(S(=O)(=O)c2ccc(Cl)c(-c3cnc(C(F)(F)F)cc3C#N)c2)c2ccccc21` [Example 4-16] had a Ki of at most 100 nM.

Consider `O=S(=O)(c1ccc(Cl)c(-c2cnc(Cl)cc2Cl)c1)N1CCCc2ccccc21` [Example 5-3], for which the Ki was at most 100 nM.

`COc1cc(Cl)c(-c2cnc(C(F)(F)F)cc2C#N)cc1S(=O)(=O)N(C)[C@@H](C)c1ccccc1` [Example 15-44]: the inhibitory constant (Ki) is at most 100 nM.

Take `N#Cc1cc(C(F)(F)F)ncc1-c1cc(S(=O)(=O)N2CCCCc3ccccc32)c(OCCCO)cc1Cl` [Example 9-2, 5-[2-Chloro-4-(3-hydroxy-propoxy)-5-(2,3,4,5-tetrahydro-benzo[b]azepine-1-sulfonyl)-phenyl]-2-trifluoromethyl-isonicotinonitrile]: the Ki is at most 100 nM.

Molecule `N#Cc1cc2ccccc2nc1-c1cc(S(=O)(=O)N2CCCCc3ccccc32)ccc1Cl` [Example 4-18] gave a Ki of at most 100 nM.

`COc1cc(Cl)c(-c2cnc(C(F)(F)F)cc2C#N)cc1S(=O)(=O)N(C)c1ccccn1` [Example 15-18] registered a Ki of at most 100 nM.

Take `COc1cc(Cl)c(-c2cnc(C(F)(F)F)cc2C#N)cc1S(=O)(=O)N(C)c1ccccc1` [Example 15-1, 4-chloro-5-(4-cyano-6-trifluoromethyl-pyridin-3-yl)-2-methoxy-N-methyl-N-phenyl-benzenesulfonamide]: the Ki was at most 100 nM.

Turning to `CN(c1ccccn1)S(=O)(=O)c1cc(-c2cnc(C(F)(F)F)cc2C#N)c(Cl)cc1OCCCC(=O)O` [Example 18-1, 4-[5-chloro-4-(4-cyano-6-trifluoromethyl-pyridin-3-yl)-2-(methyl-pyridin-2-yl-sulfamoyl)-phenoxy]-butyric acid], the Ki is at most 100 nM.

For `CCOC(=O)CN(C)S(=O)(=O)c1cc(-c2cnc(C(F)(F)F)cc2C#N)c(Cl)cc1OC` [Example 15-26], the Ki was at most 100 nM.

Consider `CC1(C)CCN(S(=O)(=O)c2cc(-c3cnc(C(F)(F)F)cc3C#N)c(Cl)cc2CC(=O)O)c2ccccc21` [Example 17-1, [5-Chloro-4-(4-cyano-6-trifluoromethyl-pyridin-3-yl)-2-(4,4-dimethyl-3,4-dihydro-2H-quinoline-1-sulfonyl)-phenyl]-acetic acid], for which the Ki was at most 100 nM.

For the molecule `CC1(C)CCN(S(=O)(=O)c2ccc(Cl)c(-c3cnc(Cl)cc3Cl)c2)c2ccccc21` [Example 5-5], the Ki is at most 100 nM.

The molecule `CN(c1ccccn1)S(=O)(=O)c1cc(-c2cnc(C(F)(F)F)cc2C#N)c(Cl)cc1OCC(=O)O` [Example 18-3, [5-chloro-4-(4-cyano-6-trifluoromethyl-pyridin-3-yl)-2-(methyl-pyridin-2-yl-sulfamoyl)-phenoxy]-acetic acid] returned a Ki of at most 100 nM.

Take `COc1cc(Cl)c(-c2cnc(C(F)(F)F)cc2C#N)cc1S(=O)(=O)N(C)c1ccccc1C` [Example 15-5]: the Ki was at most 100 nM.

`CCCCNS(=O)(=O)c1cc(-c2cnc(C(F)(F)F)cc2C#N)c(Cl)cc1OC` [Example 15-28]: the Ki is at most 100 nM.

As to `Cc1cc(C(F)(F)F)ncc1-c1cc(S(=O)(=O)N2CCCCc3ccccc32)ccc1Cl` [Example 4-9], the Ki is at most 100 nM.

Consider `N#Cc1cc(C(F)(F)F)ncc1-c1cc(S(=O)(=O)N2CCOCc3ccccc32)ccc1Cl` [Example 4-17], for which the Ki was at most 100 nM.

`COc1ccccc1N(C)S(=O)(=O)c1ccc(Cl)c(-c2cnc(Cl)cc2Cl)c1` [Example 5-2] gave a Ki of at most 100 nM.

As to `CC1(C)CCN(S(=O)(=O)c2cc(-c3cnc(C(F)(F)F)cc3C#N)c(Cl)cc2OCCCO)c2ccccc21` [Example 11-3, 5-[2-chloro-5-(4,4-dimethyl-3,4-dihydro-2H-quinoline-1-sulfonyl)-4-(3-hydroxy-propoxy)-phenyl]-2-trifluoromethyl-isonicotinonitrile], the Ki is at most 100 nM.

The molecule `CC1(C)CCN(S(=O)(=O)c2ccc(Cl)c(-c3nc4ccccc4cc3C#N)c2)c2ccccc21` [Example 4-19] displayed a Ki of at most 100 nM.

On to `O=S(=O)(c1ccc(Cl)c(-c2cnc(Cl)cc2Cl)c1)N1CCCCc2ccccc21` [Example 5-1, 1-[4-Chloro-3-(4,6-dichloro-pyridin-3-yl)-benzenesulfonyl]-2,3,4,5-tetrahydro-1H-1-benzazepine], for which the Ki is at most 100 nM.

Molecule `Cc1cc(C(F)(F)F)ncc1-c1cc(S(=O)(=O)N2CCCCc3ccccc32)c(OCCCC(=O)O)cc1Cl` [Example 7-2] yielded a Ki of at most 100 nM.

In turn, `COc1cc(Cl)c(-c2cnc(C(F)(F)F)cc2C#N)cc1S(=O)(=O)N(C)CC(C)C` [Example 15-21] registered an inhibition constant Ki of at most 100 nM.

As to `N#Cc1cc(C(F)(F)F)ncc1-c1cc(S(=O)(=O)N2CCCCc3ccccc32)c(OCCC(=O)O)cc1Cl` [Example 10-2, 3-[5-chloro-4-(4-cyano-6-trifluoromethyl-pyridin-3-yl)-2-(2,3,4,5-tetrahydro-benzo[b]azepine-1-sulfonyl)-phenoxy]-propionic acid], the inhibitory constant (Ki) is at most 100 nM.

The molecule `COc1cc(Cl)c(-c2cnc(C(F)(F)F)cc2C#N)cc1S(=O)(=O)N(C)c1ccccc1F` [Example 15-12] showed a Ki of at most 100 nM.
